How the values were obtained:
[1] = molecular target: Protein farnesyltransferase (Bos taurus, UniProt P29702+P49355); assay: Inhibition of bovine Farnesyltransferase in vitro.; format: protein-complex assay
Rat1 = assay: Inhibition of proliferation of v-Ha-ras-transformed RAT1 cells on poly-(HEMA)-coated plates; format: functional, cell-based; details: Rattus norvegicus
[2] = molecular target: Protein farnesyltransferase (Homo sapiens, UniProt P49354+P49356); assay: Inhibition of Farnesyltransferase; format: protein-complex assay

Row | Compound | IC50 [1] [µM] | IC50 [2] [µM] | IC50 (Rat1) [µM]
1 | N#Cc1ccc(Cn2cncc2CNc2ccc(Oc3ccccc3)cc2)cc1 | 1.3 | – | –
2 | CCCCN(Cc1cncn1Cc1ccc(C#N)cc1)c1ccc(Oc2ccccc2)cc1 | 0.042 | – | –
3 | Cc1cc(N(Cc2cnc(C)n2Cc2ccc(C#N)cc2)CC2CC2)ccc1S(=O)(=O)c1ccccc1 | 0.008 | – | 0.109
4 | Cc1cc(N(Cc2cnc(C)n2Cc2ccc(C#N)cc2)C(=O)C2CC2)ccc1S(=O)(=O)c1ccccc1 | 0.232 | – | –
5 | CSCC[C@H](NC(=O)[C@H](Cc1c[nH]c2ccccc12)NC(=O)[C@@H](NC(=O)[C@@H](N)CS)C(C)C)C(=O)O | – | 0.525 | –
6 | c1ccc(Oc2ccc(NCc3cnc[nH]3)cc2)cc1 | > 100 | – | –
7 | O=[N+]([O-])c1ccc(CN(Cc2c[nH]cn2)c2cccc(Oc3ccccc3)c2)cc1 | 3.2 | – | –
8 | Cc1ncc(CNc2ccc(S(=O)(=O)c3ccccc3)cc2)n1Cc1ccc(C#N)cc1 | 0.093 | – | 0.177
9 | CCCCN(Cc1cncn1Cc1ccc(C#N)cc1)c1ccc(Sc2ccccc2)cc1 | 0.14 | – | –
10 | CCCCN(Cc1cnc[nH]1)c1ccc(Oc2ccccc2)cc1 | > 100 | – | –
11 | O=[N+]([O-])c1ccc(CN(Cc2cnc[nH]2)c2ccc(Oc3ccccc3)cc2)cc1 | 1 | – | –
12 | O=C(O)c1cccc(Oc2cccc(N(Cc3cnc[nH]3)Cc3cnc[nH]3)c2)c1 | 0.019 | – | –
13 | Cc1ncc(CN(Cc2ccc(C#N)cc2)c2ccc(S(=O)(=O)c3ccccc3)cc2)n1Cc1ccc(C#N)cc1 | 0.081 | – | –
14 | CCCCN(Cc1cn(Cc2ccc(C#N)cc2)cn1)c1ccc(Oc2ccccc2)cc1 | > 100 | – | –
15 | N#Cc1ccc(CN(Cc2cncn2Cc2ccc(C#N)cc2)c2ccc(Oc3ccccc3)cc2)cc1 | 0.008 | – | –

More lines, main results first:

Row | IC50 [1] [µM] | IC50 [2] [µM] | Compound | IC50 (Rat1) [µM]
16 | 0.001 | – | Cc1cc(NCc2cncn2Cc2ccc(C#N)cc2)ccc1S(=O)(=O)c1ccccc1 | 0.016
17 | 0.0026 | – | O=C(O)c1cccc(Oc2ccc(N(Cc3c[nH]cn3)Cc3c[nH]cn3)cc2)c1 | –
18 | 0.0007 | – | N#Cc1ccc(Cn2cncc2CNc2ccc(S(=O)(=O)c3ccccc3)cc2)cc1 | 0.031
19 | 0.0008 | – | N#Cc1ccc(Cn2cncc2CNc2ccc(C(=O)c3ccccc3)cc2)cc1 | –
20 | 0.00045 | – | Cc1cc(NCc2cnc(C)n2Cc2ccc(C#N)cc2)ccc1S(=O)(=O)c1ccccc1 | 0.028
21 | 0.00025 | – | N[C@@H](CS)CNc1cccc(Oc2cccc(C(=O)O)c2)c1 | –
22 | 0.0004 | – | N[C@H](CS)CNc1ccc(Oc2cccc(C(=O)O)c2)cc1 | –
